How the values were obtained:
SW837 = test: combination cScore with sotorasib (Bliss gap around IC50) (%PoC); higher = stronger additive effect
Protocol: (§1)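 Combination screen of 179 inhibitors with the KRAS G12C inhibitor sotorasib (AMG510) in dose matrices, CellTiter-Glo readout in NCI-H2122 (72 h), SW837 (144 h) and NCI-H358 cells. The cScore is the mean Bliss-independence gap (expected minus observed viability, in %PoC) over a 3x3 field around the IC50s of both drugs. Positive means additive, and >~10 is stated as clear additive.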

NCI-H2122 = test: as above
Protocol: as §1

SMILES	combination cScore with sotorasib (SW837)	combination cScore with sotorasib (NCI-H2122)
CC1(C)CCC(CN2CCN(c3ccc(C(=O)NS(=O)(=O)c4ccc(NCC5CCOCC5)c([N+](=O)[O-])c4)c(Oc4cnc5[nH]ccc5c4)c3)CC2)=C(c2ccc(Cl)cc2)C1 [ABT-199] + C=CC(=O)N1CCN(c2nc(=O)n(-c3c(C)ccnc3C(C)C)c3nc(-c4c(O)cccc4F)c(F)cc23)[C@@H](C)C1 [sotorasib]	-2.18	11.2
CO[C@H]1/C=C/C[C@H](C)[C@@H](C)S(=O)(=O)NC(=O)c2ccc3c(c2)N(C[C@@H]2CC[C@H]21)C[C@@]1(CCCc2cc(Cl)ccc21)CO3 [AMG176] + C=CC(=O)N1CCN(c2nc(=O)n(-c3c(C)ccnc3C(C)C)c3nc(-c4c(O)cccc4F)c(F)cc23)[C@@H](C)C1 [sotorasib]	2.13	17.3
COc1cc(OC2CCN(C)CC2)ccc1Nc1ncc2c(n1)n(C1CCCC1)c(=O)n2C [AZ3146] + C=CC(=O)N1CCN(c2nc(=O)n(-c3c(C)ccnc3C(C)C)c3nc(-c4c(O)cccc4F)c(F)cc23)[C@@H](C)C1 [sotorasib]	19.4	4.43
Cc1cc(Nc2nc(N[C@@H](C)c3ncc(F)cn3)ncc2Cl)[nH]n1 [AZD-1480] + C=CC(=O)N1CCN(c2nc(=O)n(-c3c(C)ccnc3C(C)C)c3nc(-c4c(O)cccc4F)c(F)cc23)[C@@H](C)C1 [sotorasib]	-5.71	5.41
NC(=O)Nc1cc(-c2cccc(F)c2)sc1C(=O)N[C@H]1CCCNC1 [AZD-7762] + C=CC(=O)N1CCN(c2nc(=O)n(-c3c(C)ccnc3C(C)C)c3nc(-c4c(O)cccc4F)c(F)cc23)[C@@H](C)C1 [sotorasib]	6.36	2.45
COc1cc2cc(c1Cl)N(C)C(=O)C[C@H](OC(=O)C(C)C)[C@]1(C)O[C@@H]1[C@H](C)[C@@H]1C[C@@](O)(NC(=O)O1)[C@H](OC)/C=C/C=C(\C)C2 [Ansamitocin P3] + C=CC(=O)N1CCN(c2nc(=O)n(-c3c(C)ccnc3C(C)C)c3nc(-c4c(O)cccc4F)c(F)cc23)[C@@H](C)C1 [sotorasib]	-0.32	5.88
Cc1ncc([N+](=O)[O-])n1CCOC(=O)NC(Nc1ncccn1)C(Cl)(Cl)Cl (centres undefined) [Apcin] + C=CC(=O)N1CCN(c2nc(=O)n(-c3c(C)ccnc3C(C)C)c3nc(-c4c(O)cccc4F)c(F)cc23)[C@@H](C)C1 [sotorasib]	4.14	-0.45
Nc1ncn([C@@H]2O[C@H](CO)[C@@H](O)[C@H]2O)c(=O)n1 [Azacitidine] + C=CC(=O)N1CCN(c2nc(=O)n(-c3c(C)ccnc3C(C)C)c3nc(-c4c(O)cccc4F)c(F)cc23)[C@@H](C)C1 [sotorasib]	18.6	3.93
CCN1CCN(c2ccc(Nc3cc(N(C)C(=O)Nc4c(Cl)c(OC)cc(OC)c4Cl)ncn3)cc2)CC1 [BGJ398] + C=CC(=O)N1CCN(c2nc(=O)n(-c3c(C)ccnc3C(C)C)c3nc(-c4c(O)cccc4F)c(F)cc23)[C@@H](C)C1 [sotorasib]	12.1	2.52
O=C(Cc1ccccc1)Nc1nnc(CCSCCc2nnc(NC(=O)Cc3ccccc3)s2)s1 [BPTES] + C=CC(=O)N1CCN(c2nc(=O)n(-c3c(C)ccnc3C(C)C)c3nc(-c4c(O)cccc4F)c(F)cc23)[C@@H](C)C1 [sotorasib]	-3.09	4.36
Nc1nc(Nc2ccc3c(c2)CC[C@@H](N2CCCC2)CC3)nn1-c1cc2c(nn1)-c1ccccc1CCC2 [Bemcentinib] + C=CC(=O)N1CCN(c2nc(=O)n(-c3c(C)ccnc3C(C)C)c3nc(-c4c(O)cccc4F)c(F)cc23)[C@@H](C)C1 [sotorasib]	4.27	-5
C=C(c1ccc(C(=O)O)cc1)c1cc2c(cc1C)C(C)(C)CCC2(C)C [Bexarotene] + C=CC(=O)N1CCN(c2nc(=O)n(-c3c(C)ccnc3C(C)C)c3nc(-c4c(O)cccc4F)c(F)cc23)[C@@H](C)C1 [sotorasib]	-2.93	14.2
CC(O)(CS(=O)(=O)c1ccc(F)cc1)C(=O)Nc1ccc(C#N)c(C(F)(F)F)c1 (centres undefined) [Bicalutamide] + C=CC(=O)N1CCN(c2nc(=O)n(-c3c(C)ccnc3C(C)C)c3nc(-c4c(O)cccc4F)c(F)cc23)[C@@H](C)C1 [sotorasib]	-1.56	3.68
CO[C@H]1CC[C@H](n2c([C@@H]3CCCC(=O)N3c3ccc(F)c(F)c3)nc3cc(-c4c(C)noc4C)ccc32)CC1 [CCS1477] + C=CC(=O)N1CCN(c2nc(=O)n(-c3c(C)ccnc3C(C)C)c3nc(-c4c(O)cccc4F)c(F)cc23)[C@@H](C)C1 [sotorasib]	11.8	13.8
O=C(O)CCCCC(CCSCc1ccccc1)SCc1ccccc1 (centres undefined) [CPI-613] + C=CC(=O)N1CCN(c2nc(=O)n(-c3c(C)ccnc3C(C)C)c3nc(-c4c(O)cccc4F)c(F)cc23)[C@@H](C)C1 [sotorasib]	-5.35	19
CCCCCOC(=O)Nc1nc(=O)n([C@@H]2O[C@H](C)[C@@H](O)[C@H]2O)cc1F [Capecitabin] + C=CC(=O)N1CCN(c2nc(=O)n(-c3c(C)ccnc3C(C)C)c3nc(-c4c(O)cccc4F)c(F)cc23)[C@@H](C)C1 [sotorasib]	1.19	4.4
C[C@H](CS)C(=O)N1CCC[C@H]1C(=O)O [Captopril] + C=CC(=O)N1CCN(c2nc(=O)n(-c3c(C)ccnc3C(C)C)c3nc(-c4c(O)cccc4F)c(F)cc23)[C@@H](C)C1 [sotorasib]	-0.1	1.43
O=C(O)C1(C(=O)O)CCC1.[NH2-].[NH2-].[Pt+2] [Carboplatin] + C=CC(=O)N1CCN(c2nc(=O)n(-c3c(C)ccnc3C(C)C)c3nc(-c4c(O)cccc4F)c(F)cc23)[C@@H](C)C1 [sotorasib]	-4.17	11.6
COc1cc2c(Oc3ccc4[nH]c(C)cc4c3F)ncnc2cc1OCCCN1CCCC1 [Cediranib] + C=CC(=O)N1CCN(c2nc(=O)n(-c3c(C)ccnc3C(C)C)c3nc(-c4c(O)cccc4F)c(F)cc23)[C@@H](C)C1 [sotorasib]	1.55	0.01
N.N.[Cl][Pt][Cl] [Cisplatin] + C=CC(=O)N1CCN(c2nc(=O)n(-c3c(C)ccnc3C(C)C)c3nc(-c4c(O)cccc4F)c(F)cc23)[C@@H](C)C1 [sotorasib]	-10.2	4.22
Nc1nc(Cl)nc2c1ncn2[C@@H]1O[C@H](CO)[C@@H](O)[C@@H]1F [Clofarabine] + C=CC(=O)N1CCN(c2nc(=O)n(-c3c(C)ccnc3C(C)C)c3nc(-c4c(O)cccc4F)c(F)cc23)[C@@H](C)C1 [sotorasib]	3.33	1
O=C(c1ccc(F)c(F)c1Nc1ccc(I)cc1F)N1CC(O)([C@@H]2CCCCN2)C1 [Cobimetinib] + C=CC(=O)N1CCN(c2nc(=O)n(-c3c(C)ccnc3C(C)C)c3nc(-c4c(O)cccc4F)c(F)cc23)[C@@H](C)C1 [sotorasib]	11.3	5.25

Reference: the supplement of paper PMC11424490
